Measured values: ChEMBL document CHEMBL1130163, “Synthesis and inhibition studies of sulfur-substituted squalene oxide analogues as mechanism-based inhibitors of 2,3-oxidosqualene-lanosterol cyclase” (J Med Chem, 1997)

Molecular target: T1, Lanosterol synthase (Rattus norvegicus, UniProt P48450)
T1 sequence (P48450 whole entry): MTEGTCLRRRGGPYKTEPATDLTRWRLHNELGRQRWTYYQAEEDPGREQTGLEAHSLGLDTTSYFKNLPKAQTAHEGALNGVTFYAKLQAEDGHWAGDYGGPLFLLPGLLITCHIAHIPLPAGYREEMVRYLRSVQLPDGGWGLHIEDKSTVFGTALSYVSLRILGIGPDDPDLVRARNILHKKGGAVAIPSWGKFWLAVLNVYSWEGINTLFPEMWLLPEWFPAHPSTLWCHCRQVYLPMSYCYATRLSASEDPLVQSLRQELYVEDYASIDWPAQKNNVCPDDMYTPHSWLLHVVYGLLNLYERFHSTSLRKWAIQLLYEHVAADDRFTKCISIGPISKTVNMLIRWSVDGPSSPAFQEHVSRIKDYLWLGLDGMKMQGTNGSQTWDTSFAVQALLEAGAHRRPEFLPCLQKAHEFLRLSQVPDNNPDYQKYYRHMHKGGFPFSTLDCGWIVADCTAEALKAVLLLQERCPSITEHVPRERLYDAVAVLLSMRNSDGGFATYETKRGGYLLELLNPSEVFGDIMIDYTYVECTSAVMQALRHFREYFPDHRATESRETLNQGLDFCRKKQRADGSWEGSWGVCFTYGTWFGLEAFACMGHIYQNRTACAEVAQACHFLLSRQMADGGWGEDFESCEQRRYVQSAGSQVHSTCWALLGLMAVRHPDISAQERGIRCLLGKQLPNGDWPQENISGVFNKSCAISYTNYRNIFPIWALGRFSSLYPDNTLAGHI
Assay: Inhibition against rat liver Oxidosqualene-lanosterol cyclase

**Q.** For CC(C)=CCCC1(C)OC1CC/C(C)=C/CC/C=C(\C)CCCC(C)CCC1OC1C (stereo unspecified), which IC50 is on record?
**A.** 110 nM
